Where a name gives a salt, the structure may show the parent alone.
Columns and labels:
[1] = target: T1, HCV polymerase (NS5B) type 1a (Hepatitis C virus genotype 1a, UniProt P26664); assay: Assay of enzyme (HCV polymerase) inhibitory activity, type 1a enzyme; format: biochemical, HCV type 1a (cloned from the blood of patients)
T1 construct: made in house; host or cells: Escherichia coli (by the 'similar method' of the 1b enzyme)
Method in brief: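 IC50 values derive from radioactivity of newly synthesized RNA with versus without test compound. The enzyme was C-terminally truncated type 1a NS5B, 1.5 μg/ml, run 60 min at 25° C with 3H-UTP-labelled nucleotides.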

[2] = target: T2, HCV polymerase (NS5B) type 1b (Hepatitis C virus genotype 1b, UniProt P26663); assay: Assay of enzyme (HCV polymerase) inhibitory activity, type 1b enzyme; format: biochemical, HCV BK strain (type 1b)
T2 construct: a region encoding NS5B (J Virol 1991 March, 65(3), 1105-13, 544 amino acids after deletion of 47 amino acids on the C-terminal); 6xHis (C); made in house; host or cells: Escherichia coli
Method in brief: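 Polymerase activity was followed as radiolabelled UTP incorporation by E. coli-expressed, His-tagged NS5B of HCV type 1b lacking its last 47 residues. Conditions: 2 μM UTP, 50 μM other NTPs, Mg2+ buffer at pH 7.5, 25 °C for 60 min. Inhibition relative to compound-free reactions gave IC50.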

[3] = HCV polymerase inhibitory activity IC50, 1a, type 1a enzyme
[4] = HCV polymerase inhibitory activity IC50, 1b, type 1b enzyme
[5] = HCV polymerase inhibitory activity (IC50), 1a, type 1a enzyme 1.5 μg/ml, 25° C., 60 min
[6] = HCV polymerase inhibitory activity (IC50), 1b, type 1b enzyme 0.5 μg/ml, 25° C., 60 min

| SMILES | IC50 [1, 3] [nM] | IC50 [2, 4] [nM] | IC50 [1, 5] [nM] | IC50 [2, 6] [nM] |
| --- | --- | --- | --- | --- |
| CCC(F)(F)c1ccc(CNC(=O)[C@H]2CN(c3nc4cn[nH]c(=O)c4s3)CCN2S(=O)(=O)c2ccc(OC(F)(F)F)cc2)cc1 [Example 821, (R)-4-(7-oxo-6,7-dihydro-thiazolo[4,5-d]pyridazin-2-yl)-1-(4-trifluoromethoxy-benzenesulfonyl)-piperazine-2-carboxylic acid 4-(1,1-difluoro-propyl)-benzylamide] | < 100 | < 100 |  |  |
| CC(C)c1ccc(CNC(=O)[C@H]2CN(c3cnc(N)cn3)CCN2S(=O)(=O)c2ccc(C(F)(F)F)cc2)cc1 [Example 471, (R)-5′-amino-4-(4-trifluoromethyl-benzenesulfonyl)-3,4,5,6-tetrahydro-2H-[1,2′]bipyrazinyl-3-carboxylic acid 4-isopropyl-benzylamide] |  |  | 100 to 1000 | < 100 |
| N#Cc1ncc2sc(N3CCN(S(=O)(=O)c4ccc(C(F)(F)F)cc4)[C@@H](C(=O)NCc4ccc(OC(F)(F)F)cc4)C3)nc2n1 [Example 1010, (R)-4-(5-cyano-thiazolo[4,5-d]pyrimidin-2-yl)-1-(4-trifluoromethyl-benzenesulfonyl)-piperazine-2-carboxylic acid 4-trifluoromethoxy-benzylamide] | < 100 | < 100 |  |  |
| CCC(F)(F)c1ccc(CNC(=O)[C@H]2CN(C(=O)NCC(=O)O)CCN2S(=O)(=O)c2ccc(OC(F)(F)F)cc2)cc1 [Example 677, {[(R)-3-[4-(1,1-difluoro-propyl)-benzylcarbamoyl]-4-(4-trifluoromethoxy-benzenesulfonyl)-piperazine-1-carbonyl]-amino}-acetic acid] | > 1000 | > 1000 |  |  |
| O=C(NCc1ccc(OC(F)(F)F)cc1)[C@H]1CN(c2nn3c(CO)cc(=O)nc3s2)CCN1S(=O)(=O)c1ccc(OC(F)(F)F)cc1 [Example 1105] | 100 to 1000 | < 100 |  |  |
| CCCc1ccc(CNC(=O)[C@H]2CN(c3nc(C(F)(F)F)c(C(=O)O)s3)CCN2S(=O)(=O)c2ccc(OC(F)(F)F)cc2)cc1 [Example 453, 2-[(R)-3-(4-propyl-benzylcarbamoyl)-4-(4-trifluoromethoxy-benzenesulfonyl)-piperazin-1-yl]-4-trifluoromethyl-thiazole-5-carboxylic acid] |  |  | < 100 | < 100 |
| CCC(F)(F)c1ccc(CNC(=O)[C@H]2CN(c3cnc(-c4nnn[nH]4)cn3)CCN2S(=O)(=O)c2ccc(OC(F)(F)F)cc2)cc1 [Example 592, (R)-5′-(1H-tetrazol-5-yl)-4-(4-trifluoromethoxy-benzenesulfonyl)-3,4,5,6-tetrahydro-2H-[1,2′]bipyrazinyl-3-carboxylic acid 4-(1,1-difluoro-propyl)-benzylamide] |  |  | < 100 | < 100 |
| COC(=O)c1nc(Cl)c(N2CCN(S(=O)(=O)c3ccc(C(F)(F)F)cc3)[C@@H](C(=O)NCc3ccc(C(C)C)cc3)C2)nc1N [Example 420, (R)-6′-amino-3′-chloro-3-(4-isopropyl-benzylcarbamoyl)-4-(4-trifluoromethyl-benzenesulfonyl)-3,4,5,6-tetrahydro-2H-[1,2′]bipyrazinyl-5′-carboxylic acid methyl ester] |  |  | > 1000 | > 1000 |
| CC(=O)N1CCN(S(=O)(=O)c2ccc(-n3cc(Cl)cn3)s2)C(C(=O)NCc2ccc(C(F)(F)F)cc2)C1 (stereo not shown) [Example 62, 4-acetyl-1-[5-(4-chloro-pyrazol-1-yl)-thiophene-2-sulfonyl]-piperazine-2-carboxylic acid 4-trifluoromethyl-benzylamide] |  |  | > 1000 | > 1000 |
| O=C(NCc1ccc(OC(F)(F)F)cc1)[C@H]1CN(c2nn3c(C(F)(F)F)nnc3s2)CCN1S(=O)(=O)c1ccc(OC(F)(F)F)cc1 [Example 951, (R)-1-(4-trifluoromethoxy-benzenesulfonyl)-4-(3-trifluoromethyl-[1,2,4]triazolo[3,4-b][1,3,4]thiadiazol-6-yl)-piperazine-2-carboxylic acid 4-trifluoromethoxy-benzylamide] | < 100 | < 100 |  |  |
| CC(=O)N1CCN(S(=O)(=O)c2ccc(Cl)cc2Cl)C(C(=O)NCc2ccc(C(F)(F)F)cc2)C1 (stereo not shown) [Example 161, 4-acetyl-1-(2,4-dichloro-benzenesulfonyl)-piperazine-2-carboxylic acid 4-trifluoromethyl-benzylamide] |  |  | > 1000 | > 1000 |
| CC(=O)N1CCN(S(=O)(=O)c2ccc(C(C)C)cc2)[C@H](C(=O)NCc2ccc(C(F)(F)F)cc2)C1 [Example 19, (S)-4-acetyl-1-(4-isopropyl-benzenesulfonyl)-piperazine-2-carboxylic acid 4-trifluoromethyl-benzylamide] |  |  | > 1000 | > 1000 |
| O=C(NCc1ccc(OC(F)(F)F)cc1)[C@H]1CN(c2nc3nc(C(F)(F)F)ncc3s2)CCN1S(=O)(=O)c1ccc(OC(F)F)cc1 [Example 999, (R)-1-(4-difluoromethoxy-benzenesulfonyl)-4-(5-trifluoromethyl-thiazolo[4,5-d]pyrimidin-2-yl)-piperazine-2-carboxylic acid 4-trifluoromethoxy-benzylamide] | < 100 | < 100 |  |  |
| CCCc1ccc(CNC(=O)[C@H]2CN(c3nc4cc(C(=O)O)ncc4s3)CCN2S(=O)(=O)c2ccc(OC(F)(F)F)cc2)cc1 [Example 1082, 2-[(R)-3-(4-propyl-benzylcarbamoyl)-4-(4-trifluoromethoxy-benzenesulfonyl)-piperazin-1-yl]-thiazolo[5,4-c]pyridine-6-carboxylic acid] | < 100 | < 100 |  |  |
| CC(C)c1ccc(CNC(=O)[C@H]2CN(c3ncc(C(=O)O)s3)CCN2S(=O)(=O)c2ccc(C(F)(F)F)cc2)cc1 [Example 315, 2-[(R)-3-(4-isopropyl-benzylcarbamoyl)-4-(4-trifluoromethyl-benzenesulfonyl)-piperazin-1-yl]-thiazole-5-carboxylic acid] |  |  | 100 to 1000 | < 100 |
| Cc1nc(N2CCN(S(=O)(=O)c3ccc(C(F)(F)F)cc3)[C@@H](C(=O)NCc3ccc(C(C)C)cc3)C2)ncc1C(=O)O [Example 338, 2-[(R)-3-(4-isopropyl-benzylcarbamoyl)-4-(4-trifluoromethyl-benzenesulfonyl)-piperazin-1-yl]-4-methyl-pyrimidine-5-carboxylic acid] |  |  | > 1000 | 100 to 1000 |
| CCCc1ccc(CNC(=O)[C@H]2CN(c3cnc(C(=O)O)cn3)CCN2S(=O)(=O)c2ccc3c(c2)CCCCC3)cc1 [Example 435, (R)-3-(4-propyl-benzylcarbamoyl)-4-(6,7,8,9-tetrahydro-5H-benzenecycloheptene-2-sulfonyl)-3,4,5,6-tetrahydro-2H-[1,2′]bipyrazinyl-5′-carboxylic acid] |  |  | < 100 | < 100 |
| CCCN1CCC(CNC(=O)[C@H]2CN(C(C)=O)CCN2S(=O)(=O)c2ccc(OC(F)(F)F)cc2)CC1 [Example 681, (R)-4-acetyl-1-(4-trifluoromethoxy-benzenesulfonyl)-piperazine-2-carboxylic acid (1-propyl-piperidin-4-ylmethyl)-amide] | > 1000 | > 1000 |  |  |
| CCC(F)(F)c1ccc(CNC(=O)[C@H]2CN(c3cnc4cncnc4n3)CCN2S(=O)(=O)c2ccc(Cl)cc2)cc1 [Example 697, (R)-1-(4-chloro-benzenesulfonyl)-4-pteridin-7-yl-piperazine-2-carboxylic acid 4-(1,1-difluoro-propyl)-benzylamide] | < 100 | < 100 |  |  |
| CC(C)c1ccc(CNC(=O)[C@H]2CN(c3ccc(C(=O)O)cn3)CCN2S(=O)(=O)c2ccc(C(F)(F)F)cc2)cc1 [Example 327, 6-[(R)-3-(4-isopropyl-benzylcarbamoyl)-4-(4-trifluoromethyl-benzenesulfonyl)-piperazin-1-yl]-nicotinic acid trifluoroacetate] |  |  | < 100 | < 100 |
| CN(C)c1ccc(CNC(=O)C2CN(C(=O)CN)CCN2S(=O)(=O)c2ccc(I)cc2)cc1 (stereo not shown) [Example 88, 4-(2-amino-acetyl)-1-(4-iodo-benzenesulfonyl)-piperazine-2-carboxylic acid 4-dimethylamino-benzylamide hydrochloride] |  |  | > 1000 | > 1000 |
| O=C(NCc1ccc(OC(F)(F)F)cc1)[C@H]1CN(c2nc3cn[nH]c(=O)c3s2)CCN1S(=O)(=O)c1ccc(Cl)cc1 [Example 873, (R)-1-(4-chloro-benzenesulfonyl)-4-(7-oxo-6,7-dihydro-thiazolo[4,5-d]pyridazin-2-yl)-piperazine-2-carboxylic acid 4-trifluoromethoxy-benzylamide] | < 100 | < 100 |  |  |
| CCCc1ccc(CNC(=O)[C@H]2CN(C(C)=O)CCN2S(=O)(=O)c2ccc(OC(F)(F)F)cc2)c(=O)[nH]1 [Example 646, (R)-4-acetyl-1-(4-trifluoromethoxy-benzenesulfonyl)-piperazine-2-carboxylic acid (2-oxo-6-propyl-1,2-dihydro-pyridin-3-ylmethyl)-amide] |  |  | > 1000 | > 1000 |

Reference: patent publication US8017612B2, “Piperazine compound and use thereof as a HCV polymerase inhibitor” (priority 2006, dated 2011)
